# Source: US9113629B2, “4-amino-6-(4-substituted-phenyl)-picolinates and 6-amino-2-(4-substituted-phenyl)-pyrimidine-4-carboxylates and their use as herbicides” (DOW AGROSCIENCES LLC, priority 2013, dated 2015)
# Where two headings read alike, the source gives them in different places.
# Legend:
# [1] = system: Key Broadleaf Weed and Crop Species; assay: Post-emergent Test II herbicidal activity (Table 5); type: in vivo; settings: post-emergence, 336 h, 14 days after application; for pest or weed control at 70 g/ha: application rate 70 g ai/ha; for pest or weed control at 140 g/ha: application rate 140 g ai/ha
# In short: (§1)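 Visual injury ratings (0 = no injury, 100 = complete kill) were taken 14 d after treatment, relative to untreated plants. Seedlings at the first–second true leaf stage received overhead spray at 187 L/ha; the highest rate was serially diluted to ½×, ¼×, ⅛× and 1/16×.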
# [2] = system: Key Grass and Sedge Weeds as well as Grass Crops; assay: Post-emergent Test II herbicidal activity (Table 6); type: in vivo; settings: post-emergence, 336 h; for pest or weed control at 70 g/ha: 70 g ai/ha; for pest or weed control at 140 g/ha: 140 g ai/ha
# In short: as §1
# [3] = ABUTH: velvetleaf (Abutilon theophrasti), read-out: Visual Growth Reduction (%) 14 Days After Application, ABUTH
# [4] = AMARE: redroot pigweed (Amaranthus retroflexus), read-out: Visual Growth Reduction (%) 14 Days After Application, AMARE
# [5] = BRSNN: oilseed-rape, canola (Brassica napus), read-out: Visual Growth Reduction (%) 14 Days After Application, BRSNN
# [6] = CHEAL: lambsquarters (Chenopodium album), read-out: Visual Growth Reduction (%) 14 Days After Application, CHEAL
# [7] = EPHHL: wild poinsettia (Euphorbia heterophylla), read-out: Visual Growth Reduction (%) 14 Days After Application, EPHHL
# [8] = HELAN: sunflower (Helianthus annuus), read-out: Visual Growth Reduction (%) 14 Days After Application, HELAN
# [9] = VIOTR: wild pansy (Viola tricolor), read-out: Visual Growth Reduction (%) 14 Days After Application, VIOTR
# [10] = CYPES: yellow nutsedge (Cyperus esculentus), read-out: Visual Growth Reduction (%) 14 Days After Application, CYPES
# [11] = DIGSA: crabgrass (Digitaria sanguinalis), read-out: Visual Growth Reduction (%) 14 Days After Application, DIGSA
# [12] = ECHCG: barnyardgrass (Echinochloa crus-galli), read-out: Visual Growth Reduction (%) 14 Days After Application, ECHCG
# [13] = ORYSA: rice (Oryza sativa), crop, read-out: Visual Growth Reduction (%) 14 Days After Application, ORYSA
# [14] = SETFA: giant foxtail (Setaria faberi), read-out: Visual Growth Reduction (%) 14 Days After Application, SETFA
# [15] = SORVU: grain sorghum (Sorghum vulgare), read-out: Visual Growth Reduction (%) 14 Days After Application, SORVU
# [16] = TRZSS (wheat, Triticum aestivum), crop, read-out: Visual Growth Reduction (%) 14 Days After Application, TRZSS
# [17] = ZEAMX: maize, corn (Zea mays), crop, read-out: Visual Growth Reduction (%) 14 Days After Application, ZEAMX
SMILES,"pest or weed control at 70 g/ha [1, 3]","pest or weed control at 140 g/ha [1, 3]","pest or weed control at 70 g/ha [1, 4]","pest or weed control at 140 g/ha [1, 4]","pest or weed control at 70 g/ha [1, 5]","pest or weed control at 140 g/ha [1, 5]","pest or weed control at 70 g/ha [1, 6]","pest or weed control at 140 g/ha [1, 6]","pest or weed control at 70 g/ha [1, 7]","pest or weed control at 140 g/ha [1, 7]","pest or weed control at 70 g/ha [1, 8]","pest or weed control at 140 g/ha [1, 8]","pest or weed control at 70 g/ha [1, 9]","pest or weed control at 140 g/ha [1, 9]","pest or weed control at 70 g/ha [2, 10]","pest or weed control at 140 g/ha [2, 10]","pest or weed control at 70 g/ha [2, 11]","pest or weed control at 140 g/ha [2, 11]","pest or weed control at 70 g/ha [2, 12]","pest or weed control at 140 g/ha [2, 12]",also measured
COc1c(N)nc(-c2ccc(I)cc2F)nc1C(=O)O [Compound 72],85 to 94%,85 to 94%,95 to 100%,95 to 100%,85 to 94%,85 to 94%,95 to 100%,95 to 100%,95 to 100%,95 to 100%,95 to 100%,95 to 100%,60 to 74%,60 to 74%,0 to 29%,95 to 100%,45 to 59%,60 to 74%,95 to 100%,95 to 100%,"pest or weed control at 70 g/ha [2, 13]: 0 to 29%; pest or weed control at 140 g/ha [2, 13]: 0 to 29%; pest or weed control at 70 g/ha [2, 14]: 45 to 59%; pest or weed control at 140 g/ha [2, 14]: 75 to 84%; pest or weed control at 70 g/ha [2, 15]: 85 to 94%; pest or weed control at 140 g/ha [2, 15]: 95 to 100%; pest or weed control at 70 g/ha [2, 16]: 60 to 74%; pest or weed control at 140 g/ha [2, 16]: 60 to 74%; pest or weed control at 70 g/ha [2, 17]: 60 to 74%; pest or weed control at 140 g/ha [2, 17]: 60 to 74%; melting point: 95 to 98 °C"
Nc1cc(-c2ccc(Br)c(F)c2F)nc(C(=O)O)c1Cl [Compound 91],85 to 94%,95 to 100%,95 to 100%,95 to 100%,75 to 84%,85 to 94%,85 to 94%,85 to 94%,95 to 100%,95 to 100%,85 to 94%,85 to 94%,95 to 100%,95 to 100%,95 to 100%,95 to 100%,85 to 94%,85 to 94%,95 to 100%,95 to 100%,"pest or weed control at 70 g/ha [2, 13]: 0 to 29%; pest or weed control at 140 g/ha [2, 13]: 0 to 29%; pest or weed control at 70 g/ha [2, 14]: 75 to 84%; pest or weed control at 140 g/ha [2, 14]: 85 to 94%; pest or weed control at 70 g/ha [2, 15]: 75 to 84%; pest or weed control at 140 g/ha [2, 15]: 75 to 84%; pest or weed control at 70 g/ha [2, 16]: 45 to 59%; pest or weed control at 140 g/ha [2, 16]: 45 to 59%; pest or weed control at 70 g/ha [2, 17]: 85 to 94%; pest or weed control at 140 g/ha [2, 17]: 85 to 94%; melting point: 173 to 175 °C"
